By IC50 is commonly meant the concentration needed to halve the response being measured. What is called EC50 is the concentration that produces a half-maximal response. Higher therefore signals lower potency in that assay.

Structures are written as SMILES.

Assay [1] has as its system U2OS/PD-L1 cells and Jurkat-PD-1-SHP cells. The assay is described as follows: Src homology region 2 domain-containing phosphatase (SHP) assay. Conditions: Homo sapiens, U2OS. In kind it is cell-based. The method, boiled down:
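U2OS/PD-L1 and Jurkat-PD-1-SHP cells (5000 each per well) were co-incubated with compound for 2 h at 37 °C in RPMI1640 with 1% FBS, 0.05% DMSO final. PathHunter chemiluminescence was read after 1 h at room temperature, and IC50 was fitted from percent of DMSO-control activity.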

Assay [2] concerns PD-L1 aAPC/CHO-K1 cells and Jurkat-PD-1-NFAT effector cells. As to the kind of experiment: Nuclear factor of activated T-cells (NFAT) assay. The conditions noted are these: Cricetulus griseus, CHO-K1. Type of assay: cell-based. An outline of the steps:
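CHO-K1 cells expressing PD-L1 aAPC were co-cultured with Jurkat-PD-1-NFAT effector cells in RPMI 1640 with 1% FBS and compound (0.4% DMSO; top concentration 2 μM) for 24 h at 37 °C. Bio-Glo luminescence was read, fold induction normalised to DMSO wells, and EC50 fitted from percent of control compound activity.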

Assay [3] concerns the target PD-L1 (Homo sapiens (Human), UniProt Q9NZQ7). The assay is described as follows: PD-L1 whole blood internalization assay. Type of assay: cell-based. The conditions noted are these: 24 HR, PD-L1 expression on CD14+ cells, human interferon γ. The protocol: Example D. PD-L1 Whole Blood Internalization Assay
To determine PD-L1 internalization in human whole blood, normal human blood (Biological Specialty Corp, Colmar. Pa.) was incubated in the presence or absence of a concentration range of test compounds and 1 ng/ml human interferon γ (R&D Systems Inc. Minn. […] Blood was then stained with PD-L1 (MIH1, eBioscience; or BD Biosciences San Jose, Calif.), CD14 (Life Technologies, Carlsbad, Calif.) for 30 minutes in the dark at room temperature. Whole Blood/red cells were lysed/fixed (lysis buffer BD Biosciences) for 5 minutes at 37° C. in the dark and then centrifuged at 1600 RPM for 5 minutes. Cells were resuspended in Stain Buffer (BD Bioscience, San Jose, Calif.) and transferred into 96 well round bottom plates (Corning). Cells were gated on CD14+(BD Biosciences) and PD-L1 expression determined by mean fluorescence intensity (MFI) (BD LSRFortessa™ X-20). IC50 determination was performed by fitting the curve of compound percent inhibition versus the log of the compound concentration using the GraphPad Prism 7.0 software.

Assay [4] has as its target PD-1/PD-L1 protein/protein interaction (recombinant human PD-L1 and human PD-1) (Homo sapiens (Human), UniProt Q9NZQ7). As to the kind of experiment: Homogeneous Time-Resolved Fluorescence (HTRF) PD-1/PD-L1 binding assay. An outline of the steps:
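Human PD-L1 (19-238, C-His; 10 nM final) and PD-1 (25-167, C-Fc; 3 nM final) preincubated 40 min with inhibitor in PBS pH 7.4, 0.05% Tween-20, 0.1% BSA, 1% DMSO, 25 °C. Eu-anti-human IgG (1 nM) and anti-His-APC (20 nM) added for 60 min; 665/620 nm ratio; IC50 from percent-control curves.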
On the technique in general: TR-FRET usually uses a lanthanide donor and a delayed reading to cut background.

Chain of PD-1/PD-L1 protein/protein interaction (recombinant human PD-L1 and human PD-1) (Q9NZQ7 19-238): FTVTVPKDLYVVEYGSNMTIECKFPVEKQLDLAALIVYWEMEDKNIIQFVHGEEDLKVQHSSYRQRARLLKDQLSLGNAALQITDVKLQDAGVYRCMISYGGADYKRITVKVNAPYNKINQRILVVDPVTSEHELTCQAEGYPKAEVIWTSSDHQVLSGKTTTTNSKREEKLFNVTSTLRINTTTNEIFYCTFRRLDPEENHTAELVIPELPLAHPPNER
Chain of PD-L1 (Q9NZQ7 19-290): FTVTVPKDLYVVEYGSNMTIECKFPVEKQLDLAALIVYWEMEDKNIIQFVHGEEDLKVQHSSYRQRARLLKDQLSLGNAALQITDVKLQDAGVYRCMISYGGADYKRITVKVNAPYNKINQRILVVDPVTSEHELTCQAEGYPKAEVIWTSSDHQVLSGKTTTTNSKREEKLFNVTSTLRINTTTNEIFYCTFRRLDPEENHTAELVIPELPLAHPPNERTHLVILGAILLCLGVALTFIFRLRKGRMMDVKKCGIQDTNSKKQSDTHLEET

Regarding `Cn1c(C(=O)Nc2cccc(-c3cccc(NC(=O)c4nc5c(n4C)CCN(CCC46CCC(C(=O)O)(CC4)C6)C5)c3Cl)c2Cl)nc2c1CCN(CCO)C2` [Example 15, 4-(2-(2-((2,2′-dichloro-3′-(5-(2-hydroxyethyl)-1-methyl-4,5,6,7-tetrahydro-1H-imidazo[4,5-c]pyridine-2-carboxamido)-[1,1′-biphenyl]-3-yl)carbamoyl)-1-methyl-1,4,6,7-tetrahydro-5H-imidazo[4,5-c]pyridin-5-yl)ethyl)bicyclo[2.2.1]heptane-1-carboxylic acid], the IC50 in assay [1] was at most 0.01 µM; in assay [3] it was 0.01 to 0.1 µM; in assay [4] it was at most 0.005 µM. Also, the EC50 in assay [2] lay within 0.01 to 0.1 µM.
For `Cn1c(C(=O)Nc2cccc(-c3cccc(NC(=O)c4nc5c(n4C)CCN(CCC46CCC(C(=O)O)(CC4)C6)C5)c3Cl)c2Cl)nc2c1CCN(CCCO)C2` [Example 16, 4-(2-(2-((2,2′-dichloro-3′-(5-(3-hydroxypropyl)-1-methyl-4,5,6,7-tetrahydro-1H-imidazo[4,5-c]pyridine-2-carboxamido)-[1,1′-biphenyl]-3-yl)carbamoyl)-1-methyl-1,4,6,7-tetrahydro-5H-imidazo[4,5-c]pyridin-5-yl)ethyl)bicyclo[2.2.l]-heptane-1-carboxylic acid], the IC50 was at most 0.01 µM in assay [1], 0.01 to 0.1 µM in assay [3] and at most 0.005 µM in assay [4]. In addition, the EC50 in assay [2] was at most 0.01 µM.
Consider `Cn1c(C(=O)Nc2cccc(-c3cccc(NC(=O)c4nc5c(n4C)CCN(CCC46CCC(C(=O)O)(CC4)C6)C5)c3Cl)c2Cl)nc2c1CCN(CCC13CCC(C(=O)O)(CC1)C3)C2` [Example 17, 4,4′-(((((2,2′-dichloro-[1,1′-biphenyl]-3,3′-diyl)bis(azanediyl))bis(carbonyl))bis(1-methyl-1,4,6,7-tetrahydro-5H-imidazo[4,5-c]pyridine-2,5-diyl))bis(ethane-2,1-diyl))bis(bicyclo[2.2.1]heptane-1-carboxylic acid)], for which the IC50 in assay [1] was at most 0.01 µM; in assay [3] it was 0.01 to 0.1 µM; in assay [4], at most 0.005 µM. In addition, in assay [2], the EC50 was in the range of 0.01 to 0.1 µM.
Turning to `Cn1c(C(=O)Nc2cccc(-c3cccc(NC(=O)c4nc5c(n4C)CCN(CC46CCC(C(=O)O)(CC4)C6)C5)c3Cl)c2Cl)nc2c1CCN(CCC13CCC(C(=O)O)(CC1)C3)C2` [Example 18, 4-((2-((3′-(5-(2-(4-carboxybicyclo[2.2.1]heptan-1-yl)ethyl)-1-methyl-4,5,6,7-tetrahydro-1H-imidazo[4,5-c]pyridine-2-carboxamido)-2,2′-dichloro-[1,1′-biphenyl]-3-yl)carbamoyl)-1-methyl-1,4,6,7-tetrahydro-5H-imidazo[4,5-c]pyridin-5-yl)methyl)bicyclo[2.2.1]heptane-1-carboxylic acid], the figures for the IC50 in assay [1], in assay [3] and in assay [4] were at most 0.01 µM, 0.01 to 0.1 µM and at most 0.005 µM, respectively. In assay [2], this compound yielded an EC50 of 0.01 to 0.1 µM.
For the compound `Cn1c(C(=O)Nc2cccc(-c3cccc(NC(=O)c4nc5c(n4C)CCN(CC(=O)O)C5)c3Cl)c2Cl)nc2c1CCN(CCC13CCC(C(=O)O)(CC1)C3)C2` [Example 19, 4-(2-(2-((3′-(5-(carboxymethyl)-1-methyl-4,5,6,7-tetrahydro-1H-imidazo[4,5-c]pyridine-2-carboxamido)-2,2′-dichloro-[1,1′-biphenyl]-3-yl)carbamoyl)-1-methyl-1,4,6,7-tetrahydro-5H-imidazo[4,5-c]pyridin-5-yl)ethyl)bicyclo[2.2.1]heptane-1-carboxylic acid], the IC50 is at most 0.01 µM in assay [1], 0.01 to 0.1 µM in assay [3] and at most 0.005 µM in assay [4]. Further, in assay [2], the 50% effective concentration (EC50) lay in the range of 0.01 to 0.1 µM.
On to `Cn1c(C(=O)Nc2cccc(-c3cccc(NC(=O)c4nc5c(n4C)CCN(CCC46CCC(C(=O)O)(CC4)C6)C5)c3Cl)c2Cl)nc2c1CCN(CCCC(=O)O)C2` [Example 20, 4-(2-(2-((3′-(5-(3-carboxypropyl)-1-methyl-4,5,6,7-tetrahydro-1H-imidazo[4,5-c]pyridine-2-carboxamido)-2,2′-dichloro-[1,1′-biphenyl]-3-yl)carbamoyl)-1-methyl-1,4,6,7-tetrahydro-5H-imidazo[4,5-c]pyridin-5-yl)ethyl)bicyclo[2.2.1]heptane-1-carboxylic acid], for which the IC50 in assay [1] is at most 0.01 µM; in assay [3], 0.01 to 0.1 µM; in assay [4], at most 0.005 µM. Also, in assay [2], the EC50 fell in the range of 0.01 to 0.1 µM.
With `Cn1c(C(=O)Nc2cccc(-c3cccc(NC(=O)c4nc5c(n4C)CCN(CC(C)(C)C(=O)O)C5)c3Cl)c2Cl)nc2c1CCN(CCC13CCC(C(=O)O)(CC1)C3)C2` [Example 21, 4-(2-(2-((3′-(5-(2-carboxy-2-methylpropyl)-1-methyl-4,5,6,7-tetrahydro-1H-imidazo[4,5-c]pyridine-2-carboxamido)-2,2′-dichloro-[1,1′-biphenyl]-3-yl)carbamoyl)-1-methyl-1,4,6,7-tetrahydro-5H-imidazo[4,5-c]pyridin-5-yl)ethyl)bicyclo[2.2.1]heptane-1-carboxylic acid], the results for the IC50 in assay [1], in assay [3] and in assay [4] were at most 0.01 µM, 0.01 to 0.1 µM and at most 0.005 µM, respectively. This compound also gave an EC50 in assay [2] of 0.01 to 0.1 µM.
As to `Cn1c(C(=O)Nc2cccc(-c3cccc(NC(=O)c4nc5c(n4C)CCN(CC4(C(=O)O)CC4)C5)c3Cl)c2Cl)nc2c1CCN(CCC13CCC(C(=O)O)(CC1)C3)C2` [Example 22, 4-(2-(2-((3′-(5-((1-carboxycyclopropyl)methyl)-1-methyl-4,5,6,7-tetrahydro-1H-imidazo[4,5-c]pyridine-2-carboxamido)-2,2′-dichloro-[1,1′-biphenyl]-3-yl)carbamoyl)-1-methyl-1,4,6,7-tetrahydro-5H-imidazo[4,5-c]pyridin-5-yl)ethyl)bicyclo[2.2.1]heptane-1-carboxylic acid], the IC50 was at most 0.01 µM in assay [1], 0.01 to 0.1 µM in assay [3] and at most 0.005 µM in assay [4]. Besides, the EC50 in assay [2] lay within 0.01 to 0.1 µM.
In the case of `Cn1c(C(=O)Nc2cccc(-c3cccc(NC(=O)c4nc5c(n4C)CCN(CC46CCC(C(=O)O)(CC4)CC6)C5)c3Cl)c2Cl)nc2c1CCN(CCC13CCC(C(=O)O)(CC1)C3)C2` [Example 23, 4-((2-((3′-(5-(2-(4-carboxybicyclo[2.2.1]heptan-1-yl)ethyl)-1-methyl-4,5,6,7-tetrahydro-1H-imidazo[4,5-c]pyridine-2-carboxamido)-2,2′-dichloro-[1,1′-biphenyl]-3-yl)carbamoyl)-1-methyl-1,4,6,7-tetrahydro-5H-imidazo[4,5-c]pyridin-5-yl)methyl)bicyclo[2.2.2]octane-1-carboxylic acid], the figures for the IC50 in assay [1], in assay [3] and in assay [4] were at most 0.01 µM, 0.1 to 0.5 µM and at most 0.005 µM, respectively. Further, in assay [2], the EC50 lay in the range of 0.01 to 0.1 µM.
Consider `Cn1c(C(=O)Nc2cccc(-c3cccc(NC(=O)c4nc5c(n4C)CCN(CC46CC(C(=O)O)(C4)C6)C5)c3Cl)c2Cl)nc2c1CCN(CCC13CCC(C(=O)O)(CC1)C3)C2` [Example 24, 3-((2-((3′-(5-(2-(4-carboxybicyclo[2.2.1]heptan-1-yl)ethyl)-1-methyl-4,5,6,7-tetrahydro-1H-imidazo[4,5-c]pyridine-2-carboxamido)-2,2′-dichloro-[1,1′-biphenyl]-3-yl)carbamoyl)-1-methyl-1,4,6,7-tetrahydro-5H-imidazo[4,5-c]pyridin-5-yl)methyl)bicyclo[1.1.1]-pentane-1-carboxylic acid], for which the IC50 in assay [1] was at most 0.01 µM; in assay [3], 0.01 to 0.1 µM; in assay [4], at most 0.005 µM. For the same compound, the EC50 in assay [2] lay within 0.01 to 0.1 µM.
As to `Cn1c(C(=O)Nc2cccc(-c3cccc(NC(=O)c4nc5c(n4C)CCN(CCC46CCC(C(=O)O)(CC4)C6)C5)c3Cl)c2Cl)nc2c1CCN(CCc1ccc(C(=O)O)cc1)C2` [Example 25, 4-(2-(2-((3′-(5-(4-carboxyphenethyl)-1-methyl-4,5,6,7-tetrahydro-1H-imidazo[4,5-c]pyridine-2-carboxamido)-2,2′-dichloro-[1,1′-biphenyl]-3-yl)carbamoyl)-1-methyl-1,4,6,7-tetrahydro-5H-imidazo[4,5-c]pyridin-5-yl)ethyl)bicyclo[2.2.1]heptane-1-carboxylic acid], the IC50 in assay [1] is 0.01 to 0.1 µM; in assay [3], 0.1 to 0.5 µM; in assay [4], at most 0.005 µM. In assay [2], this compound showed an EC50 of 0.01 to 0.1 µM.

For the origin of these results see US10618916B2, “Heterocyclic compounds as immunomodulators” (Incyte Corporation, priority 2018, dated 2020).
